Experimental data: ChEMBL document CHEMBL4138123, “Design, synthesis and biological evaluation of novel pyrazolochalcones as potential modulators of PI3K/Akt/mTOR pathway and inducers of apoptosis in breast cancer cells” (Eur J Med Chem, 2017)

Assays:
Type in all cases: functional
[1] = tested on: HCT-15; assay: Cytotoxicity against human HCT15 cells assessed as cell growth at 0.1 uM after 48 hrs by sulforhodamine B assay relative to control; settings: HCT-15, 48 h, read-out: Activity
[2] = tested on: SK-MEL-5; assay: Cytotoxicity against human SK-MEL-5 cells assessed as cell growth at 1 uM after 48 hrs by sulforhodamine B assay relative to control; settings: SK-MEL-5, 48 h, read-out: Activity
[3] = tested on: NCI-H226; assay: Cytotoxicity against human NCI-H226 cells assessed as cell growth at 10 uM after 48 hrs by sulforhodamine B assay relative to control; settings: NCI-H226, 48 h, read-out: Activity
[4] = tested on: MDA-MB-435; assay: Cytotoxicity against human MDA-MB-435 cells assessed as cell growth at 1 uM after 48 hrs by sulforhodamine B assay relative to control; settings: MDA-MB-435, 48 h, read-out: Activity
[5] = tested on: OVCAR-8; assay: Cytotoxicity against human OVCAR8 cells assessed as cell growth at 0.01 uM after 48 hrs by sulforhodamine B assay relative to control; settings: OVCAR-8, 48 h, read-out: Activity
[6] = tested on: UO-31; assay: Cytotoxicity against human UO31 cells assessed as cell growth at 100 uM after 48 hrs by sulforhodamine B assay relative to control; settings: UO-31, 48 h, read-out: Activity
[7] = tested on: DU-145; assay: Cytotoxicity against human DU145 cells assessed as cell growth at 0.01 uM after 48 hrs by sulforhodamine B assay relative to control; settings: DU-145, 48 h, read-out: Activity
[8] = tested on: OVCAR-3; assay: Cytotoxicity against human OVCAR3 cells assessed as growth inhibition after 48 hrs by sulforhodamine B assay; settings: OVCAR-3, 48 h
[9] = tested on: HL-60(TB); assay: Cytotoxicity against human HL-60(TB) cells assessed as growth inhibition after 48 hrs by sulforhodamine B assay; settings: HL-60, 48 h
[10] = tested on: K562; assay: Cytotoxicity against human K562 cells assessed as cell growth at 0.01 uM after 48 hrs by sulforhodamine B assay relative to control; settings: K562, 48 h, read-out: Activity
[11] = tested on: Malme-3M; assay: Cytotoxicity against human MALME-3M cells assessed as cell growth at 10 uM after 48 hrs by sulforhodamine B assay relative to control; settings: read-out: Activity
[12] = tested on: T47D; assay: Cytotoxicity against human T47D cells assessed as cell growth at 0.01 uM after 48 hrs by sulforhodamine B assay relative to control; settings: read-out: Activity
[13] = tested on: NCI-H226; assay: Cytotoxicity against human NCI-H226 cells assessed as cell growth at 0.1 uM after 48 hrs by sulforhodamine B assay relative to control; settings: NCI-H226, 48 h, read-out: Activity
[14] = tested on: CCRF-CEM; assay: Cytotoxicity against human CCRF-CEM cells assessed as cell growth at 10 uM after 48 hrs by sulforhodamine B assay relative to control; settings: read-out: Activity
[15] = tested on: SK-MEL-28; assay: Cytotoxicity against human SK-MEL-28 cells assessed as cell growth at 1 uM after 48 hrs by sulforhodamine B assay relative to control; settings: SK-MEL-28, 48 h, read-out: Activity
[16] = tested on: A549; assay: Cytotoxicity against human A549/ATCC cells assessed as cell growth at 0.01 uM after 48 hrs by sulforhodamine B assay relative to control; settings: A549, 48 h, read-out: Activity
[17] = tested on: M14; assay: Cytotoxicity against human M14 cells assessed as growth inhibition after 48 hrs by sulforhodamine B assay; settings: M14, 48 h
[18] = tested on: PC-3; assay: Cytotoxicity against human PC3 cells assessed as cell growth at 100 uM after 48 hrs by sulforhodamine B assay relative to control; settings: PC-3, 48 h, read-out: Activity
[19] = tested on: UACC-62; assay: Cytotoxicity against human UACC62 cells assessed as growth inhibition after 48 hrs by sulforhodamine B assay; settings: UACC-62, 48 h
[20] = tested on: ACHN; assay: Cytotoxicity against human ACHN cells assessed as cell growth at 0.1 uM after 48 hrs by sulforhodamine B assay relative to control; settings: read-out: Activity
[21] = tested on: TK-10; assay: Cytotoxicity against human TK10 cells assessed as cell growth at 0.01 uM after 48 hrs by sulforhodamine B assay relative to control; settings: TK-10, 48 h, read-out: Activity
[22] = tested on: NCI-H226; assay: Cytotoxicity against human NCI-H226 cells assessed as cell growth at 100 uM after 48 hrs by sulforhodamine B assay relative to control; settings: NCI-H226, 48 h, read-out: Activity
[23] = tested on: TK-10; assay: Cytotoxicity against human TK10 cells assessed as growth inhibition after 48 hrs by sulforhodamine B assay; settings: TK-10, 48 h
[24] = tested on: NCI-H322M; assay: Cytotoxicity against human NCI-H322M cells assessed as cell growth at 0.01 uM after 48 hrs by sulforhodamine B assay relative to control; settings: read-out: Activity
[25] = tested on: 786-0; assay: Cytotoxicity against human 786-0 cells assessed as cell growth at 0.1 uM after 48 hrs by sulforhodamine B assay relative to control; settings: 786-0, 48 h, read-out: Activity
[26] = tested on: UACC-257; assay: Cytotoxicity against human UACC257 cells assessed as cell growth at 0.1 uM after 48 hrs by sulforhodamine B assay relative to control; settings: UACC-257, 48 h, read-out: Activity
[27] = tested on: NCI-H522; assay: Cytotoxicity against human NCI-H522 cells assessed as cell growth at 10 uM after 48 hrs by sulforhodamine B assay relative to control; settings: NCI-H522, 48 h, read-out: Activity
[28] = tested on: A498; assay: Cytotoxicity against human A498 cells assessed as cell growth at 1 uM after 48 hrs by sulforhodamine B assay relative to control; settings: A498, 48 h, read-out: Activity
[29] = tested on: SF-268; assay: Cytotoxicity against human SF268 cells assessed as cell growth at 0.01 uM after 48 hrs by sulforhodamine B assay relative to control; settings: SF-268, 48 h, read-out: Activity
[30] = tested on: MDA-MB-435; assay: Cytotoxicity against human MDA-MB-435 cells assessed as cell growth at 0.01 uM after 48 hrs by sulforhodamine B assay relative to control; settings: MDA-MB-435, 48 h, read-out: Activity
[31] = tested on: NCI-H522; assay: Cytotoxicity against human NCI-H522 cells assessed as cell growth at 0.1 uM after 48 hrs by sulforhodamine B assay relative to control; settings: NCI-H522, 48 h, read-out: Activity
[32] = tested on: NCI-H460; assay: Cytotoxicity against human NCI-H460 cells assessed as cell growth at 1 uM after 48 hrs by sulforhodamine B assay relative to control; settings: NCI-H460, 48 h, read-out: Activity
[33] = tested on: SF-539; assay: Cytotoxicity against human SF539 cells assessed as growth inhibition after 48 hrs by sulforhodamine B assay; settings: SF-539, 48 h
[34] = tested on: A498; assay: Cytotoxicity against human A498 cells assessed as cell growth at 0.01 uM after 48 hrs by sulforhodamine B assay relative to control; settings: A498, 48 h, read-out: Activity
[35] = tested on: KM12; assay: Cytotoxicity against human KM12 cells assessed as growth inhibition after 48 hrs by sulforhodamine B assay; settings: KM12, 48 h

Question: What does the source list for `COc1ccc(C(=O)/C=C/c2cc(-c3cc(OC)c(OC)c(OC)c3)n[nH]2)cc1OC`?
Answer: growth at 0.1 µM [1]: 98%; growth at 1 µM [2]: 91%; growth at 10 µM [3]: -81%; growth at 1 µM [4]: 70%; growth at 0.01 µM [5]: 97%; growth at 100 µM [6]: -96%; growth at 0.01 µM [7]: 104%; LC50 [8]: 5.97 µM; TGI [8]: 3.17 µM; LC50 [9]: 80.2 µM; TGI [9]: 4.18 µM; growth at 0.01 µM [10]: 96%; growth at 10 µM [11]: -82%; growth at 0.01 µM [12]: 93%; growth at 0.1 µM [13]: 97%; growth at 10 µM [14]: -26%; growth at 1 µM [15]: 96%; growth at 0.01 µM [16]: 98%; LC50 (concentration killing 50% of cells) [17]: 7.38 µM; TGI [17]: 3.69 µM; growth at 100 µM [18]: -95%; LC50 [19]: 5.98 µM; TGI [19]: 3.22 µM; growth at 0.1 µM [20]: 97%; growth at 0.01 µM [21]: 85%; growth at 100 µM [22]: -49%; LC50 [23]: 5.1 µM; TGI [23]: 2.6 µM; growth at 0.01 µM [24]: 94%; growth at 0.1 µM [25]: 94%; growth at 0.1 µM [26]: 89%; growth at 10 µM [27]: -95%; growth at 1 µM [28]: 78%; growth at 0.01 µM [29]: 93%; growth at 0.01 µM [30]: 95%; growth at 0.1 µM [31]: 91%; growth at 1 µM [32]: 70%; GI50 [33]: 1.27 µM; LC50 (concentration killing 50% of cells) [33]: 5.31 µM; TGI [33]: 2.6 µM; growth at 0.01 µM [34]: 97%; LC50 [35]: 5.43 µM; TGI [35]: 2.41 µM

Question: Which results are given for `COc1ccc(-c2cc(/C=C/C(=O)c3ccc(N)cc3)[nH]n2)cc1`?
Answer: growth at 0.1 µM [1]: 100%; growth at 1 µM [2]: 90%; growth at 10 µM [3]: -29%; growth at 1 µM [4]: 85%; growth at 0.01 µM [5]: 96%; growth at 100 µM [6]: -87%; growth at 0.01 µM [7]: 104%; GI50 [8]: 1.25 µM; LC50 [8]: 7.09 µM; TGI [8]: 2.97 µM; GI50 [9]: 1.43 µM; LC50 [9]: > 100 µM; TGI [9]: 7.71 µM; growth at 0.01 µM [10]: 98%; growth at 10 µM [11]: -23%; growth at 0.01 µM [12]: 98%; growth at 0.1 µM [13]: 84%; growth at 10 µM [14]: -27%; growth at 1 µM [15]: 91%; growth at 0.01 µM [16]: 101%; GI50 [17]: 2.67 µM; LC50 (concentration killing 50% of cells) [17]: 36.1 µM; TGI [17]: 6.54 µM; growth at 100 µM [18]: -83%; GI50 [19]: 1.48 µM; LC50 [19]: 5.84 µM; TGI [19]: 2.94 µM; growth at 0.1 µM [20]: 105%; growth at 0.01 µM [21]: 93%; growth at 100 µM [22]: -51%; GI50 [23]: 2.81 µM; LC50 [23]: 39.8 µM; TGI [23]: 13 µM; growth at 0.01 µM [24]: 95%; growth at 0.1 µM [25]: 95%; growth at 0.1 µM [26]: 97%; growth at 10 µM [27]: -70%; growth at 1 µM [28]: 90%; growth at 0.01 µM [29]: 95%; growth at 0.01 µM [30]: 97%; growth at 0.1 µM [31]: 85%; growth at 1 µM [32]: 92%; GI50 [33]: 1.47 µM; LC50 (concentration killing 50% of cells) [33]: 8.25 µM; TGI [33]: 3.48 µM; growth at 0.01 µM [34]: 88%; GI50 [35]: 1.54 µM; LC50 [35]: 7.61 µM; TGI [35]: 3.42 µM
